From patent US20240376097A1, “BCL-2 Inhibitor” (BeiGene Ltd., priority 2020, published 2024)

Legend:
[1] = target: recombinant human Bcl-2-G101V protein (Homo sapiens (Human), UniProt P10415, G101V); assay: Bcl-2-G101V TR-FRET Assay; assay type: binding; conditions: Bcl-2 G101V mutant, TR-FRET; read-out: Biochemical assay (IC50, nM) Bcl-2 G101V
How it was run: (§1)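 Compounds were titrated at increasing concentrations against the Bcl-2-G101V–ligand interaction. TR-FRET signals were then read (ex 337 nm; em 490/520 nm). Percent inhibition was derived from the 490-to-520 nm ratio, and IC50 from a four-parameter logistic equation.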

[2] = system: recombinant human Bcl-2-G101V protein; assay: Bcl-2-G101V TR-FRET Assay; assay type: binding; conditions: for ratio of IC50 of Bcl-2 G101V/Bcl-2 wt, compared with Example F132b in WO2019210828 and ABT-199 (venetoclax): comparison in words; for Ratio of Bcl-2 G101V/WT: ratio of biochemical IC50 Bcl-2 G101V / Bcl-2 WT
How it was run: as §1

[3] = system: RS4;11 (BCL-2 dependent acute lymphoblastic leukemia cell line); assay: RS4;11 Cell Proliferation Assay; assay type: cell-based; conditions: Homo sapiens, RS4;11 cells, read-out: Cellular proliferation assay (IC50, nM) RS4
How it was run: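 Viability measured via CellTiter-Glo luminescence after a 48 h, 37 °C exposure to compounds (10 points, highest 1 μM). Seeding was 50,000 RS4;11 cells per well in 10% FBS RPMI-1640; IC50 given as mean.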

[4] = Metabolic Stability Study, liver microsome incubation (human); assay type: in vitro ADME; conditions: human liver microsomes 0.5 mg/mL, 1 μM compound, NADPH; for microsomal CLint at 1 μM: read-out: CLint (μL × min^−1 × mg^−1) Human; for half-life at 1 μM: NA^# = very stable, beyond the detection limits, read-out: T1/2 (min) Human
How it was run: (§2)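 Test compounds (1 μM) incubated at 37° C with 0.5 mg/mL liver microsomes plus NADPH regenerating system; samples quenched at 0, 30 and 60 min. Parent loss measured by LC-MS/MS, giving CLint and T1/2, with CLint normalised to microsomal protein concentration.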

[5] = Metabolic Stability Study, liver microsome incubation (mouse); assay type: in vitro ADME; conditions: mouse liver microsomes 0.5 mg/mL, 1 μM compound, NADPH; for half-life at 1 μM: NA^# = very stable, beyond the detection limits, read-out: T1/2 (min) mouse; for microsomal CLint at 1 μM: read-out: CLint (μL × min^−1 × mg^−1) mouse
How it was run: as §2

[6] = Mouse PK Study; assay type: in vivo; conditions: plasma, male CD-1 mouse
Method: Biological Example: Mouse PK Study
The pharmacokinetics of compounds were evaluated in male CD-1 mouse via Intravenous (dose of 1 mg/kg) and Oral Administration (dose of 10 mg/kg). For intravenous administration study, test compounds were dissolved in DMSO/EtOH/Cremophor EL/D5W (2.5/10/20/67.5, by volume) and injected with a 1 mg/kg dose via tail vein. For oral administration study, test compounds were dissolved in PEG400/Phosal 50 PG/EtOH (30/60/10, by volume) and administrated to mice at 10 mg/kg by gavage. Blood was collected into EDTA-K2 anticoagulant tube at 5 (IV only). 15, and 30 min and 1, 2, 4, 8 and 24 h after administration. Approximately 30 μL blood was collected at each time point. And then the blood was centrifuged at 3000 g for 5 min at 4° C. using a centrifuge to obtain the plasma. The plasma sample was transferred into a tube and stored in a freezer at approximately −20° C. until the determination of concentration by LC-MS/MS. Pharmacokinetic parameter were estimated by using WinNonlin software (version 8.1, Pharsight Corporation, CA, USA) with non-compartmental method. The following pharmacokinetic parameters were calculated, whenever possible from the plasma concentration-time data: CL, Vd, T1/2, AUClast, AUCinf for IV administration and Tmax, Cmax, AUClast, AUCinf, T1/2 for PO administration. All animals are free fed before experiment. For comparison purpose, the PK results of certain compounds in previous disclosure were obtained using the same methods.

Row | Compound | IC50 [1] [nM] | ratio of IC50 of Bcl-2 G101V/Bcl-2 wt, compared with Example F132b in WO2019210828 and ABT-199 (venetoclax) [2] | Ratio of Bcl-2 G101V/WT [2] | IC50 [3] [nM] | microsomal CLint at 1 μM [4] [µL/min/mg] | half-life at 1 μM [5] [min] | microsomal CLint at 1 μM [5] [µL/min/mg] | AUC(0-t) ([6]; Iv dosing (1 mg/kg)) [ng·h/mL] | Vd ([6]; Iv dosing (1 mg/kg)) [L/kg] | clearance ([6]; Iv dosing (1 mg/kg)) [mL/min/kg] | AUC(0-t) ([6]; Po dosing (10 mg/kg)) [ng·h/mL] | Cmax ([6]; Po dosing (10 mg/kg)) [ng/mL] | half-life at 1 μM [4] [min]
1 | COc1ccc(CN2CCN(C3CC4(CCN(c5ccc(C(=O)NS(=O)(=O)c6ccc(NC[C@H]7CC[C@](C)(O)CC7)c([N+](=O)[O-])c6)c(Oc6cnc7[nH]ccc7c6)c5)CC4)C3)[C@H](c3ccccc3C(C)C)C2)cc1 [Example 19a, 2-((1H-pyrrolo[2,3-b]pyridin-5-yl)oxy)-N-((4-((((1r,4r)-4-hydroxy-4-methylcyclohexyl)methyl)amino)-3-nitrophenyl)sulfonyl)-4-(2-((R)-2-(2-isopropylphenyl)-4-(4-methoxybenzyl)piperazin-1-yl)-7-azaspiro[3.5]nonan-7-yl)benzamide] | 0.18 | much lower | 3.2 | 0.15 | < 1 | 346 | 4 | 12300 | 0.48 | 1.4 | 20000 | 1590 | –
2 | COc1cc(CN2CCN(C3CC4(C3)CN(c3ccc(C(=O)NS(=O)(=O)c5ccc(NC[C@H]6CC[C@](C)(O)CC6)c([N+](=O)[O-])c5)c(Oc5cnc6[nH]cc(F)c6c5)c3)C4)[C@H](c3ccccc3C(C)C)C2)cc2cc(C)oc12 [Example 338, 2-((3-fluoro-1H-pyrrolo[2,3-b]pyridin-5-yl)oxy)-N-((4-((((1r,4r)-4-hydroxy-4-methylcyclohexyl)methyl)amino)-3-nitrophenyl)sulfonyl)-4-(6-((R)-2-(2-isopropylphenyl)-4-((7-methoxy-2-methylbenzofuran-5-yl)methyl)piperazin-1-yl)-2-azaspiro[3.3]heptan-2-yl)benzamide] | 1.4 | much lower | 2.3 | 0.11 | 2.1 | 538 | 2.6 | 42900 | 0.37 | 0.4 | 11600 | 699 | 659
3 | COc1cc(CN2CCN(C3CC4(C3)CN(c3ccc(C(=O)NS(=O)(=O)c5ccc(NC[C@H]6CC[C@](C)(O)CC6)c([N+](=O)[O-])c5)c(Oc5cnc6[nH]cc(F)c6c5)c3)C4)[C@H](c3ccccc3C(C)C)C2)ccc1C1CC1 [Example 232, 4-(6-((R)-4-(4-cyclopropyl-3-methoxybenzyl)-2-(2-isopropylphenyl)piperazin-1-yl)-2-azaspiro[3.3]heptan-2-yl)-2-((3-fluoro-1H-pyrrolo[2,3-b]pyridin-5-yl)oxy)-N-((4-((((1r,4r)-4-hydroxy-4-methylcyclohexyl)methyl)amino)-3-nitrophenyl)sulfonyl)benzamide] | 1.3 | much lower | 1.8 | 0.13 | 1.7 | 206 | 6.7 | 14400 | 1.2 | 1.2 | 18300 | 1090 | 822
4 | CC(C)c1ccccc1[C@@H]1CN(Cc2ccc(F)c(F)c2)CCN1C1CC2(CCN(c3ccc(C(=O)NS(=O)(=O)c4ccc(NC[C@H]5CC[C@](C)(O)CC5)c([N+](=O)[O-])c4)c(Oc4cnc5[nH]ccc5c4)c3)CC2)C1 (single isomer, unassigned) [Example 52a, 2-((1H-pyrrolo[2,3-b]pyridin-5-yl)oxy)-4-(2-((R or S)-4-(3,4-difluorobenzyl)-2-(2-isopropylphenyl)piperazin-1-yl)-7-azaspiro[3.5]nonan-7-yl)-N-((4-((((1r,4r)-4-hydroxy-4-methylcyclohexyl)methyl)amino)-3-nitrophenyl)sulfonyl)benzamide] | 0.68 | – | 4.2 | 0.25 | – | – | – | 6510 | 0.62 | 2.6 | 20700 | 2140 | –
5 | COc1cc(CN2CCN(C3CC4(C3)CN(c3ccc(C(=O)NS(=O)(=O)c5ccc(NC[C@H]6CC[C@](C)(O)CC6)c([N+](=O)[O-])c5)c(Oc5cnc6[nH]ccc6c5)c3)C4)[C@H](c3ccccc3C(C)C)C2)ccc1C1CC1 [Example 233, 2-((1H-pyrrolo[2,3-b]pyridin-5-yl)oxy)-4-(6-((R)-4-(4-cyclopropyl-3-methoxybenzyl)-2-(2-isopropylphenyl)piperazin-1-yl)-2-azaspiro[3.3]heptan-2-yl)-N-((4-((((1r,4r)-4-hydroxy-4-methylcyclohexyl)methyl)amino)-3-nitrophenyl)sulfonyl)benzamide] | 0.95 | much lower | 2.2 | 0.13 | 2.6 | 253 | 5.5 | 17200 | 0.8 | 1 | 17400 | 1100 | 534
6 | COc1ccc(CN2CCN(C3CC4(CCN(c5ccc(C(=O)NS(=O)(=O)c6ccc(NCC7(F)CCOCC7)c([N+](=O)[O-])c6)c(Oc6cnc7[nH]ccc7c6)c5)CC4)C3)[C@H](c3ccccc3C(C)C)C2)cc1 (single isomer, unassigned) [Example 32, (R or S)-2-((1H-pyrrolo[2,3-b]pyridin-5-yl)oxy)-N-((4-(((4-fluorotetrahydro-2H-pyran-4-yl)methyl)amino)-3-nitrophenyl)sulfonyl)-4-(2-(2-(2-isopropylphenyl)-4-(4-methoxybenzyl)piperazin-1-yl)-7-azaspiro[3.5]nonan-7-yl)benzamide] | 0.28 | – | 2.9 | 0.18 | 2.6 | 202 | 6.8 | 10500 | 0.48 | 1.5 | 21200 | 1440 | 533
